Measurements as given in patent US20090232848A1, “METHODS FOR CULTIVATING LAWSONIA INTRACELLULARIS” (priority 2004, published 2009).
Where two headings read alike, the source gives them in different places.

Key:
Format in all cases: cell-based, Lawsonia intracellularis
[1] = tested on: L. intracellularis swine isolate VP1; details: McCoy cells; for Monolayer infection by immunoperoxidase staining: day 5 or 6 post-infection
Experimental: L. intracellularis swine isolate VP1 (passage 17) was used to infect McCoy cells. McCoy cells were seeded in tissue culture flasks at 1.25×10^5 cells per 25 cm^2 flask, and 1.25×10^4 cells per Trac bottle (Bibby Sterilin Ltd.; Staffordshire, United Kingdom), in DMEM supplemented with 7% fetal bovine serum (FBS). The Trac bottle was used to monitor simulative infection in the flask. The flasks and Trac bottles were incubated overnight at 37° C. in a humidified incubator with 5% CO2. The following day, cells in both the flask and Trac bottle were infected with the L. intracellularis swine isolate (passage 17) in fresh DMEM with 7% FBS. After the addition of L. intracellularis, the flasks and Trac bottles were treated in three different ways. One flask and the corresponding Trac bottle were evacuated at 15 psi of Hg vacuum and purged with pure hydrogen. A second flask and the corresponding Trac bottle were neither evacuated nor purged with hydrogen, but instead received a supplement of cysteine hydrochloride (Sigma, C-7477; St. Louis, Mo.), β-NAD and phoshatidylcholine to a final concentration of 0.01%, 5 mM and 100 ng/ml, respectively, during the first two passages, and only cysteine hydrochlride (0.02% final concentration) during the later passages. The third flask and the corresponding Trac bottle were not evacuated or purged with hydrogen, nor received any supplements. All flasks and Trac bottles were incubated at 37° C. in an incubator containing 8.0 % O2 and 8.8% CO2 and 83.2% N2. On day 2 and 5 post-infection, 50% of the media from all flasks and Trac bottles was replaced with fresh DMEM with 5% FBS with or without cysteine hydrochloride, β-NAD and phoshatidylcholine.
On day 5 or 6 post-infection, the monolayers in the tissue culture flasks were monitored by immunoperoxidase staining of the corresponding Trac bottle cover slip. Briefly, the cover slip from the Trac bottle was removed and washed gently with Phosphate Buffered Saline (PBS), and bound to a microscope slide using a permanent glue. The cover slip then was fixed in acetone for 30 sec at room temperature. Rabbit anti-L. intracellularis polyclonal antibody, diluted 1:400 in PBS, was added to cover the entire cover slip, which was then incubated in a humidified environment at 37° C. for 30 min. The cover slip was washed gently with PBS and a 1:20 dilution of peroxidase-conjugated goat anti-rabbit IgG (H+L; Kirkegaard & Perry Laboratories, Inc.; Gaithersburg, Md.) was added to the cover slip and incubated for 30 min at 37° C. Peroxidase substrate solution was prepared by dissolving 10 mg of 3,3′-Diaminobenzidine (DAB; Sigma-Aldrich; St. Louis, Mo.) in 20 ml of PBS. After filtration through Whatman 113V filter paper (Whatman International Ltd.; Kent, United Kingdom), 40 μl of 30% H2O2 was added to the dissolved substrate. The final substrate solution was added to the cover slip and incubated at room temperature for 5 min. After rinsing with tap water, the cover slip was counterstained for 30 sec using Modified Harris Hematoxylin Solution (Sigma-Aldrich). The stained slide then was rinsed with tap water and observed under a microscope. Infection of the McCoy cells was also assessed by microscopic viewing of the bacteria in the media within the flask.
The infected McCoy cells in the flask were lysed using a 0.1% potassium chloride (KCl) solution on day 6 or 7 post-infection. The lysed material was used to re-infect fresh McCoy cell monolayers in flasks and Trac bottles. Briefly, after removing the media from the flask, a 0.1% KCl solution was added (5 ml per 25 cm^2) and incubated at 37° C. for 5-10 min. The KCl solution was removed from the flask, and 2 ml of sucrose potassium glutamate (SPG; 0.218M sucrose, 0.0038M KH2PO4, 0.0072M K2H PO4, and 0.0049M potassium glutamate) with 5% FBS was added. A cell scraper was then used to remove the cells from the flask. They were then lysed by forcing them through a syringe fitted with a 18 ga needle. […]

[2] = tested on: L. intracellularis isolate VP1; details: cysteine HCl 0.02%; for Bacteria in the Supernatant / Bacteria in the Supernatant: motility / Monolayer infection by staining: McCoy cells; for Monolayer infection by staining: day 6 or 7 post-infection; for Flagella in lysed material by fluorescent antibody (FITC) staining: hydrochloride
Experimental: In a separate set of experiments, L. intracellularis isolate VP1 (passage 23) was used to infect McCoy cell monolayers. The cells were then placed in a microaerophilic environment for 15 days. […] Flasks were re-fed with fresh media. […] Monolayer cells from the flask were lysed using water. Briefly, media from the flask was removed, and approximately 16 ml of sterile de-ionized water was added to the flask, followed by incubation at 37° C. for 10 min. […] The flask was then gently tapped against the palm of the hand, and a drop of the lysed material was observed under a microscope. […] A 4.25% NaCl solution was immediately added to bring the media to near normal physiological osmolarity.
The lysed material was centrifuged at 3200×g for 15 minutes. The resultant pellet was re-suspended in 41 ml of DMEM with 7% FBS, and was used to infect fresh McCoy cells. 35 ml of this lysed L. intracellularis infective material was added to one 175 cm^2 flask seeded with McCoy cells, and 0.5 ml to one seeded Trac bottle. Both the flask and the Trac bottle were evacuated with a vacuum at 15 psi of Hg, and then purged with pure hydrogen. 5 ml and 0.5 ml of the material were also used to infect McCoy cells seeded in a 25 cm^2 flask and a Trac bottle, respectively. Following evacuation with 15 psi of vacuum and a nitrogen flush, a 5× stock solution of cysteine HCl was added to the 25 cm^2 flask and the corresponding Trac bottle to a final concentration of 0.02%. All flasks and Trac bottles were incubated at 37° C. in an incubator containing 8.0% oxygen, 8.8% carbon dioxide and 83.2% nitrogen. Re-feeding was carried out as described above; the flask and Trac bottle which received cysteine HCl were also refed to the same final concentration (0.02%).
The infection was monitored on day 6 or 7 post-infection by immunoperoxidase staining of the corresponding cover slips as described above. Infection was also monitored by flourescent antibody staining. Briefly, cell lysate was collected on a Cytospin microscopic slide using a Cytofunnel sample chamber (Shandon Inc.; Pittsburg, Pa.) and centrifugation for 10 min at 1500 rpm. The sample was air dried and fixed in acetone for 30 sec. The smear was then covered with a 1:400 dilution of rabbit anti-L. intracellularis polyclonal serum and incubated at 37° C. for 30 min. The slide was washed gently with PBS, and a 1:20 dilution of fluorescein-labeled Goat anti-rabbit IgG (H+L; Kirkegaard & Perry Labs) was added to the smear, and the slide was incubated at 37° C. for 30 min. It was then observed under a fluorescent microscope.

[3] = tested on: L. intracellularis hamster isolate STR; details: McCoy cells; day 5 post-infection; cysteine hydrochloride 0.02%
Experimental: The cells were incubated overnight at 37° C. in 5% CO2, and were infected the next day with ˜5×10^5 bacteria per 25 cm^2flask. The infected flasks and the 48-well plates were evacuated at 15 psi of Hg vacuum and purged with hydrogen. A second set of flasks and corresponding Trac bottles were evacuated and purged with pure nitrogen, and cysteine hydrochloride was added to a final concentration of 0.02%. The infected flasks and plates were incubated in a bi-gas incubator at 8.0% CO2, 8.8% O2 and 83.2% N2. The flasks were re-fed with 50% volume of media on day 2 and day 5 post-infection, using DMEM with 5% FBS. A determination of the degree of infection was made on day 5 using immunoperoxidase staining. Lysis and re-infection were carried out based on the extent of infection as monitored by immunostaining of 48-well plate infections (routinely on day 7 post-infection). The media supernatant was collected from the flasks and centrifuged at 3500 g for 30 minutes. The supernatant was discarded and the pellet resuspended in SPG with 5% FBS. The monolayers were washed with PBS, followed by the addition of water and incubation at 37° C. for 15 min, at which time cells began detaching from the flask. The cells were then lysed by passaging 4 to 5 times through a syringe fitted with an 18 ga needle. The lysate was centrifuged at 350 g for 5 min to pellet the cell nuclei. […]

[4] = tested on: L. intracellularis (STR isolate); details: after 10 passages; McCoy cells; cysteine hydrochloride 0.02%, no hydrogen purge
Experimental: The bacteria were passaged by cell lysis. Supernatants and cell lysates were prepared from both flasks, as described earlier, and were used to infect fresh monolayers of McCoy cells seeded into 25 cm^2 or 75 cm^2 flasks at split ratios of 1:1 or 1:2, depending on the extent of infection as determined by immunostaining of the 48-well plate monolayers.
The 48-well plates infected with or without cysteine hydrochloride were fixed with 80% acetone on day 5 post-infection, and stained using the immunoperoxidase and immunofluorescence methods as described previously. The percent of McCoy cells infected using hydrogen gassing versus cysteine HCl was evaluated after each bacterial passage.

[5] = tested on: L. intracellularis swine isolate PHE/MN-001; details: p49, after 9 passages, McCoy cells, cysteine hydrochloride 0.02%
Experimental: Two 75 cm^2 flasks were seeded in a similar manner as described for the hamster STR isolate, starting with 6×10^5 McCoy cells in DMEM with 7% FBS, and incubated overnight at 37° C. in 5% CO2. […] The following day, the flasks were infected using the supernatant and cell lysate from L. intracellularis (PHE/MN-001 isolate)-infected McCoy cells at passage 40. One flask was evacuated, supplemented with 0.02% cysteine hydrochloride, purged with hydrogen, and placed in the incubator. The second flask was supplemented with 0.02% cysteine hydrochloride and placed in the incubator without first purging using hydrogen. The two 48-well plates were infected with L. intracellularis in parallel with the two flasks, and once again served as controls for monitoring the infection and for immunostaining. The flasks and 48-well plates were incubated in the incubator at 8.0% CO2, 8.8% O2 and 83.2% N2. The flasks were re-fed with 50% volume of media on day 2 and day 5 post-infection using DMEM with 5% FBS.
The bacteria were passaged by cell lysis, as described in earlier. […] The percent of McCoy cells infected with cysteine hydrochloride and hydrogen gassing, as compared with cysteine HCl alone, was evaluated after each bacterial passage.

[6] = passage P18, Treatment 2 = cysteine HCl 0.01% + β-NAD 5 mM + phosphatidylcholine 100 ng/ml
[7] = passage P18, Treatment 2 = cysteine HCl 0.01% + β-NAD + phosphatidylcholine
[8] = passage P19, Treatment 2 = cysteine HCl 0.01% + β-NAD + phosphatidylcholine

| SMILES | Bacteria in the Supernatant [1, 6] | Monolayer infection by immunoperoxidase staining [1, 7] | Monolayer infection by immunoperoxidase staining [1, 8] | Monolayer infection by immunoperoxidase staining ([1]; passage P20, cysteine HCl 0.02% only) | Bacteria in the Supernatant ([1]; passage P21, cysteine HCl 0.02% only) | Bacteria in the Supernatant ([2]; passage P25) | Bacteria in the Supernatant: motility ([2]; passage P25) | Monolayer infection by staining ([2]; passage P26) | L. intracellularis infection of McCoy cells compared to infection using hydrogen gassing [2] | Viability of L. intracellularis ([2]; inactive culture after 15 days in microaerophilic environment) | Flagella in lysed material by fluorescent antibody (FITC) staining ([2]; passage P25) | Flagella in lysed material by fluorescent antibody (FITC) staining ([2]; passage P25, listed as cysteine chloride) | Infection by immunoperoxidase staining of cover slips [3] | Culture expansion from one 25 cm^2 flask (increase) [4] [fold] | Bacterial Counts (per ml supernatant) ([5]; Split Ratio 1:2) | Bacterial Counts (per ml supernatant) ([5]; Split Ratio 1:4) | Bacteria in the Supernatant ([1]; passage P20) | Monolayer infection by staining ([2]; passage P25) |
| --- | --- | --- | --- | --- | --- | --- | --- | --- | --- | --- | --- | --- | --- | --- | --- | --- | --- | --- |
| Cl.N[C@@H](CS)C(=O)O [cysteine hydrochloride] | Slightly positive | Little or no infection | 20% | 30-40% (larger foci of | Highly positive | Slightly positive, | highly motile | 50-60% infection | enhanced | viability could be restored | elevated flagellar expression | showed large numbers of flagella. | about 20% | 12 | 8.5 × 10^7 per ml supernatant | 5.8 × 10^7 per ml supernatant |  |  |
| [HH] [hydrogen, reference compound] | Positive | 60-70% | ≧80% |  |  | Slightly positive, | Normal motilty |  |  |  |  |  | about 20% | 4 |  |  | Highly positive | Lesser infection (smaller and |
